Source: the NIST ThermoML archive (doi:10.1016/j.jct.2012.10.023)

Assays:
[1] = xn = mol fraction of the nth substance listed; conditions: 101 kPa, Liquid; for speed of sound: Sing-around technique in a fixed-path interferometer; for mass density: Vibrating tube method
[2] = 101.33 kPa, Liquid; for speed of sound: Sing-around technique in a fixed-path interferometer; for mass density: Vibrating tube method

CCc1ccccc1 [ethylbenzene] + CCCCCCCCCO
[1], x1 = 1
Conditions | mass density [kg/m3] | speed of sound [m/s]
298.15 K | 862.433 | 1318.6
308.15 K | 853.607 | 1277.5

Cc1ccc(C)cc1 [1,4-dimethylbenzene] + CCCCCCCCCO
[1], x1 = 1
Conditions | mass density [kg/m3] | speed of sound [m/s]
298.15 K | 856.609 | 1309.5
308.15 K | 847.881 | 1268.6

Cc1cccc(C)c1 [1,3-dimethylbenzene] + CCCCCCCCCO
[1], x1 = 1
Conditions | mass density [kg/m3] | speed of sound [m/s]
298.15 K | 859.867 | 1320.1
308.15 K | 851.236 | 1279.1

CCCCCCCCCO [nonan-1-ol] + CCc1ccccc1
[1]
Conditions | mass density, 298.15 K [kg/m3] | mass density, 308.15 K [kg/m3] | speed of sound, 298.15 K [m/s] | speed of sound, 308.15 K [m/s]
x2 = 0 | 824.271 | 817.362 | 1363.1 | 1330.4
x2 = 0.0611 | 825.837 | 818.832 | 1359.7 | 1326.2
x2 = 0.1285 | 827.606 | 820.495 | 1355.8 | 1321.2
x2 = 0.1791 | 828.979 | 821.784 | 1352.3 | 1317.2
x2 = 0.2466 | 830.861 | 823.552 | 1347.6 | 1312
x2 = 0.3151 | 832.863 | 825.431 | 1342.6 | 1306.5
x2 = 0.3717 | 834.594 | 827.054 | 1338.4 | 1301.9
x2 = 0.4254 | 836.312 | 828.667 | 1334.5 | 1297.6
x2 = 0.5007 | 838.858 | 831.059 | 1329.2 | 1291.8
x2 = 0.5756 | 841.598 | 833.621 | 1324.6 | 1286.4
x2 = 0.6411 | 844.187 | 836.032 | 1321 | 1282.3
x2 = 0.7122 | 847.192 | 838.876 | 1318 | 1278.8
x2 = 0.7798 | 850.293 | 841.821 | 1316 | 1276.2
x2 = 0.8557 | 854.062 | 845.455 | 1315.2 | 1275
x2 = 0.9341 | 858.405 | 849.669 | 1316.3 | 1274.9

Cc1ccccc1C [1,2-dimethylbenzene] + CCCCCCCCCO
[1], x1 = 1
Conditions | mass density [kg/m3] | speed of sound [m/s]
298.15 K | 875.363 | 1348.2
308.15 K | 866.507 | 1308.2

Cc1cc(C)cc(C)c1 [1,3,5-trimethylbenzene] + CCCCCCCCCO
[1], x1 = 1
Conditions | mass density [kg/m3] | speed of sound [m/s]
298.15 K | 860.862 | 1336
308.15 K | 852.659 | 1296.3

CCCCCCCCCO [nonan-1-ol] + Cc1cccc(C)c1
[1]
Conditions | mass density, 298.15 K [kg/m3] | mass density, 308.15 K [kg/m3] | speed of sound, 298.15 K [m/s] | speed of sound, 308.15 K [m/s]
x2 = 0 | 824.271 | 817.362 | 1363.1 | 1330.4
x2 = 0.066 | 826.04 | 819.011 | 1360.2 | 1326.5
x2 = 0.127 | 827.699 | 820.562 | 1357 | 1322.5
x2 = 0.1739 | 828.993 | 821.778 | 1354.2 | 1319.2
x2 = 0.2461 | 831.027 | 823.695 | 1349.4 | 1313.9
x2 = 0.2913 | 832.335 | 824.932 | 1346.4 | 1310.4
x2 = 0.3635 | 834.482 | 826.964 | 1341.4 | 1304.8
x2 = 0.4422 | 836.925 | 829.276 | 1335.9 | 1298.9
x2 = 0.4872 | 838.383 | 830.658 | 1332.9 | 1295.5
x2 = 0.5648 | 841.002 | 833.142 | 1328.2 | 1290.1
x2 = 0.6251 | 843.155 | 835.189 | 1324.7 | 1286.3
x2 = 0.6873 | 845.49 | 837.419 | 1321.9 | 1283
x2 = 0.7713 | 848.867 | 840.659 | 1319 | 1279.5
x2 = 0.8508 | 852.346 | 843.997 | 1317.8 | 1277.7
x2 = 0.9284 | 856.073 | 847.58 | 1318 | 1277.6

Cc1cc(C)cc(C)c1 [1,3,5-trimethylbenzene]
[2]
Conditions | mass density [kg/m3] | speed of sound [m/s]
298.15 K | 860.862 | 1336
308.15 K | 852.659 | 1296.3

Cc1ccc(C)cc1 [1,4-dimethylbenzene]
[2]
Conditions | mass density [kg/m3] | speed of sound [m/s]
298.15 K | 856.609 | 1309.5
308.15 K | 847.881 | 1268.6

CCc1ccccc1 [ethylbenzene]
[2]
Conditions | mass density [kg/m3] | speed of sound [m/s]
298.15 K | 862.433 | 1318.6
308.15 K | 853.607 | 1277.5

Cc1ccccc1C [1,2-dimethylbenzene]
[2]
Conditions | mass density [kg/m3] | speed of sound [m/s]
298.15 K | 875.363 | 1348.2
308.15 K | 866.507 | 1308.2

Cc1cccc(C)c1 [1,3-dimethylbenzene]
[2]
Conditions | mass density [kg/m3] | speed of sound [m/s]
298.15 K | 859.867 | 1320.1
308.15 K | 851.236 | 1279.1

CCCCCCCCCO [nonan-1-ol] + Cc1cc(C)cc(C)c1
[1]
Conditions | mass density, 298.15 K [kg/m3] | mass density, 308.15 K [kg/m3] | speed of sound, 298.15 K [m/s] | speed of sound, 308.15 K [m/s]
x2 = 0 | 824.271 | 817.362 | 1363.1 | 1330.4
x2 = 0.0696 | 826.211 | 819.181 | 1360.9 | 1327.3
x2 = 0.1267 | 827.826 | 820.708 | 1358.8 | 1324.6
x2 = 0.195 | 829.792 | 822.576 | 1356 | 1321
x2 = 0.2375 | 831.043 | 823.768 | 1354 | 1318.6
x2 = 0.3044 | 833.053 | 825.691 | 1350.8 | 1314.8
x2 = 0.362 | 834.839 | 827.405 | 1347.8 | 1311.4
x2 = 0.4358 | 837.211 | 829.683 | 1344.1 | 1307.4
x2 = 0.5112 | 839.754 | 832.121 | 1340.5 | 1303.3
x2 = 0.5777 | 842.112 | 834.381 | 1337.5 | 1300
x2 = 0.6422 | 844.512 | 836.681 | 1335.2 | 1297.5
x2 = 0.7091 | 847.143 | 839.209 | 1333.3 | 1295.2
x2 = 0.7788 | 850.052 | 841.998 | 1332.4 | 1293.7
x2 = 0.8571 | 853.546 | 845.418 | 1332.4 | 1293.1
x2 = 0.9234 | 856.701 | 848.558 | 1333.4 | 1293.8

CCCCCCCCCO [nonan-1-ol] + Cc1ccccc1C
[1]
Conditions | mass density, 298.15 K [kg/m3] | mass density, 308.15 K [kg/m3] | speed of sound, 298.15 K [m/s] | speed of sound, 308.15 K [m/s]
x2 = 0 | 824.271 | 817.362 | 1363.1 | 1330.4
x2 = 0.0653 | 826.644 | 819.637 | 1361.7 | 1328.2
x2 = 0.136 | 829.283 | 822.169 | 1359.7 | 1325.5
x2 = 0.1773 | 830.871 | 823.694 | 1358.3 | 1323.7
x2 = 0.2281 | 832.869 | 825.612 | 1356.5 | 1321.4
x2 = 0.2834 | 835.111 | 827.766 | 1354.3 | 1318.8
x2 = 0.3463 | 837.756 | 830.309 | 1351.8 | 1315.8
x2 = 0.4203 | 841.015 | 833.448 | 1348.8 | 1312.5
x2 = 0.4761 | 843.593 | 835.935 | 1346.7 | 1310
x2 = 0.5478 | 847.079 | 839.304 | 1344.3 | 1307.3
x2 = 0.6327 | 851.482 | 843.569 | 1342.2 | 1304.7
x2 = 0.7121 | 855.922 | 847.884 | 1341.1 | 1303
x2 = 0.7974 | 861.062 | 852.892 | 1341 | 1302.3
x2 = 0.8695 | 865.751 | 857.475 | 1342.1 | 1302.8
x2 = 0.9287 | 869.902 | 861.543 | 1344 | 1304.3

CCCCCCCCCO [nonan-1-ol] + Cc1ccc(C)cc1
[1]
Conditions | mass density, 298.15 K [kg/m3] | mass density, 308.15 K [kg/m3] | speed of sound, 298.15 K [m/s] | speed of sound, 308.15 K [m/s]
x2 = 0 | 824.271 | 817.362 | 1363.1 | 1330.4
x2 = 0.0611 | 825.819 | 818.805 | 1360.1 | 1326.3
x2 = 0.1108 | 827.09 | 819.99 | 1357.1 | 1322.6
x2 = 0.1652 | 828.491 | 821.297 | 1353.4 | 1318.2
x2 = 0.226 | 830.074 | 822.774 | 1349 | 1313.3
x2 = 0.2932 | 831.854 | 824.435 | 1343.9 | 1307.5
x2 = 0.3651 | 833.819 | 826.271 | 1338.4 | 1301.2
x2 = 0.4248 | 835.506 | 827.851 | 1333.5 | 1296.1
x2 = 0.5023 | 837.784 | 829.988 | 1327.5 | 1289.7
x2 = 0.558 | 839.499 | 831.601 | 1323.3 | 1285.2
x2 = 0.6359 | 842.032 | 833.99 | 1318.1 | 1279.6
x2 = 0.7123 | 844.678 | 836.494 | 1313.8 | 1274.8
x2 = 0.7744 | 846.969 | 838.668 | 1311 | 1271.7
x2 = 0.8514 | 850.015 | 841.569 | 1308.9 | 1269
x2 = 0.9286 | 853.306 | 844.715 | 1308 | 1268

CCCCCCCCCO [nonan-1-ol]
[2]
Conditions | mass density [kg/m3] | speed of sound [m/s]
298.15 K | 824.271 | 1363.1
308.15 K | 817.362 | 1330.4
